Measured values published in US8802694B2, “3,6-diazabicyclo[3.1.1]heptanes as neuronal nicotinic acetycholine receptor ligands” (Targacept, Inc., priority 2009, dated 2014).
Like-named read-outs stand apart in the source and are kept apart here.

What was measured:
Human α4β2 = target: T1, Human α4β2 (Homo sapiens, UniProt P17787+P43681); experiment: Competition binding to human α4β2 receptors in membranes of SH-EP1/human α4β2 cells ([3H]-nicotine); settings: membrane competition binding
T1 construct: host or cells: SH-EP1

α6β3β4α5 = target: T2, α6β3β4α5 (Homo sapiens, UniProt P30926+Q15825); experiment: Competition binding to α6β3β4α5 receptors in membranes of SH-EP1/α6β3β4α5 cells ([3H]-epibatidine); settings: membrane competition binding
T2 construct: host or cells: SH-EP1

Rat α4β2 = target: T3, Rat α4β2 (Rattus norvegicus, UniProt P09483+P12390); experiment: Competition binding to rat α4β2 receptors in rat cortical membranes; settings: rat cortex membranes
T3 construct: Rat cortices were obtained from Analytical Biological Services; tissue Analytical Biological Services, Incorporated (ABS, Wilmington, Del.); host or cells: rat cortex (female Sprague-Dawley)
Experimental: Preparation of membranes from rat tissues. Rat cortices were obtained from Analytical Biological Services, Incorporated (ABS, Wilmington, Del.). Tissues were dissected from female Sprague-Dawley rats, frozen and shipped on dry ice. Tissues were stored at −20° C. until needed for membrane preparation. […] The resulting homogenate was centrifuged at 40,000 g for 20 minutes at 4° C. and the resulting pellet was resuspended in 20 volumes of ice-cold water. After 60-minute incubation at 4° C., a new pellet was collected by centrifugation at 40,000 g for 20 minutes at 4° C. The final pellet was resuspended in preparative buffer and stored at −20° C. On the day of the assay, tissue was thawed, centrifuged at 40,000 g for 20 minutes and then resuspended in PBS (Dulbecco's Phosphate Buffered Saline, Life Technologies, pH 7.4) to a final concentration of 2-3 mg protein/mL. Protein concentrations were determined using the Pierce BCA Protein Assay kit (Pierce Biotechnology, Rockford, Ill.), with bovine serum albumin as the standard.
Competition binding to receptors in membrane preparations. […] In brief, membranes were reconstituted from frozen stocks (approximately 0.2 mg protein) and incubated for 2 h on ice in […] assay buffer (PBS) in the presence of competitor compound (0.001 nM to […]) and radioligand. [^3H]-nicotine (L-(−)-[N-methyl-3H]-nicotine, 69.5 Ci/mmol, Perkin-Elmer Life Sciences) was used for human α4β2 binding studies. [^3H]-epibatidine (52 Ci/mmol, Perkin-Elmer Life Sciences) was used for binding studies at the other receptor subtypes. […] Filters were washed 3 times and the radioactivity retained was determined by liquid scintillation counting.
Binding data analysis. Binding data were expressed as percent total control binding. Replicates for each point were averaged and plotted against the log of drug concentration.

SMILES	Ki (Human α4β2; Human α4β2 Ki)	Ki (α6β3β4α5; α6β3β4α5 Ki)	Ki (Rat α4β2; Rat α4β2 Ki)	Ki (α6β3β4α5; read-out: α6β3β4α5 Ki)	Ki (Human α4β2; read-out: Human α4β2 Ki)	Ki (Rat α4β2; read-out: Rat α4β2 Ki)
O=C([C@H]1C[C@H]1F)N1CC2CC(C1)N2 [drawing 110]	5.2 nM	530 nM	1.1 nM			
CC1(C)CC1C(=O)N1C2CNCC1C2 (centres unmarked)	75 nM		45 nM	800 nM		
O=C(C1CC12CCCC2)N1CC2CC(C1)N2 (centres unmarked)	26 nM	96 nM	31 nM			
O=C(NCc1ccc(Cl)cc1)N1CC2CC(C1)N2			4 nM	210 nM	110 nM	
O=C(C1CC1)N1CC2CC(C1)N2 [3-cyclopropylcarbonyl-3,6-diazabicyclo[3.1.1]heptane]		140 nM	2.3 nM		3 nM	
CCCC(=O)N1C2CNCC1C2	9.9 nM		5.1 nM	230 nM		
CCCC(=O)N1CC2CC(C1)N2	12 nM	290 nM	4.1 nM			
O=C(CC1CCC1)N1C2CNCC1C2	53 nM		30 nM	360 nM		
CC1(C)C(C(=O)N2CC3CC(C2)N3)C1(C)C				480 nM	140 nM	710 nM
C[C@H]1C[C@H]1C(=O)N1CC2CC(C1)N2	1.8 nM	58 nM	0.39 nM			
O=C(C1CC(F)(F)C1)N1CC2CC(C1)N2	16 nM		19 nM	370 nM		
O=C([C@@H]1C[C@H]1c1ccccc1)N1CC2CC(C1)N2	4.7 nM	64 nM	4.4 nM			
CCC1(CC)CC1C(=O)N1C2CNCC1C2 (centres unmarked)				4400 nM	850 nM	
CCC[C@H]1C[C@H]1C(=O)N1CC2CC(C1)N2	44 nM			220 nM		130 nM
O=C(CCC(F)(F)F)N1CC2CC(C1)N2	74 nM		63 nM	980 nM		
O=C(CC1CCC1)N1CC2CC(C1)N2	49 nM		34 nM	440 nM		
C[C@@H]1C[C@H]1C(=O)N1CC2CC(C1)N2		95 nM	0.08 nM		1 nM	
O=C(CC1CCCC1)N1C2CNCC1C2			100 nM	360 nM	220 nM	
CC1CC(C(=O)N2CC3CC(C2)N3)C1 (centres unmarked)	23 nM		22 nM	380 nM		
O=C([C@@H]1C[C@@H]1F)N1CC2CC(C1)N2	1.8 nM	280 nM	0.86 nM			
O=C([C@@H]1C[C@H]1F)N1CC2CC(C1)N2		91 nM	0.54 nM		1 nM	
O=C(C1C2CCCCC21)N1C2CNCC1C2 (centres unmarked)				6400 nM	310 nM	
O=C(C1CC1(F)F)N1CC2CC(C1)N2 (centres unmarked)	6.1 nM	510 nM	8.8 nM			
O=C(CC(F)(F)F)N1CC2CC(C1)N2 [3-(2,2,2-trifluoroethyl)carbonyl-3,6-diazabicyclo[3.1.1]heptane]	11 nM		25 nM	1700 nM		
C/C=C/CCC(=O)N1C2CNCC1C2	53 nM		15 nM	400 nM		
O=C(C1C2C3CCC(C3)C12)N1C2CNCC1C2 (centres unmarked)				100000 nM	1900 nM	
O=C(CCC(F)(F)F)N1C2CNCC1C2			72 nM	1500 nM	180 nM	
O=C(C1CC12CCC2)N1CC2CC(C1)N2 (centres unmarked)	2.6 nM	50 nM	1.2 nM			

SMILES	Ki (Human α4β2; Human α4β2 Ki)	Ki (α6β3β4α5; α6β3β4α5 Ki)	Ki (Rat α4β2; Rat α4β2 Ki)	Ki (α6β3β4α5; read-out: α6β3β4α5 Ki)	Ki (Human α4β2; read-out: Human α4β2 Ki)	Ki (Rat α4β2; read-out: Rat α4β2 Ki)
O=C(C1CC(F)(F)C1)N1C2CNCC1C2	54 nM		16 nM	510 nM		
CC1CC(C(=O)N2C3CNCC2C3)C1 (centres unmarked)	49 nM		58 nM	770 nM		
O=C(C1C2CCCCC21)N1CC2CC(C1)N2 (centres unmarked)	78 nM		30 nM	280 nM		
O=C(c1ccc(Br)o1)N1CC2CC(C1)N2 [3-(2-bromofuran-5-yl)carbonyl-3,6-diazabicyclo[3.1.1]heptane]	25 nM		83 nM	1800 nM		
O=C(CSc1ccc(Cl)c(Cl)c1)N1CC2CC(C1)N2	2.3 nM	100 nM	16 nM			
O=C(NCc1ccc(Cl)c(Cl)c1)N1CC2CC(C1)N2	90 nM		71 nM	120 nM		
C[C@@H]1C[C@H]1C(=O)N1C2CNCC1C2	9.2 nM		50 nM	1700 nM		
O=C(CSc1ccc(O)cc1)N1CC2CC(C1)N2	11 nM		8.6 nM	120 nM		
CC(C)C(=O)N1CC2CC(C1)N2 [3-isopropylcarbonyl-3,6-diazabicyclo[3.1.1]heptane]	220 nM	830 nM	23 nM			
O=C(C1CC12CCC2)N1C2CNCC1C2 (centres unmarked)	38 nM		32 nM	340 nM		
CC1CC1C(=O)N1CC2CC(C1)N2 (centres unmarked)	5 nM	120 nM	1.8 nM			
O=C([C@@H]1C[C@H]1c1ccccc1)N1C2CNCC1C2	30 nM		51 nM	350 nM		
O=C(c1cc(Br)co1)N1CC2CC(C1)N2 [3-(3-bromofuran-5-yl)carbonyl-3,6-diazabicyclo[3.1.1]heptane]	35 nM		80 nM	2700 nM		
CCC1(CC)CC1C(=O)N1CC2CC(C1)N2 (centres unmarked)	71 nM		69 nM	470 nM		
O=C(CC1CCOC1)N1C2CNCC1C2 (centres unmarked)				1600 nM	330 nM	130 nM
Cc1ncoc1C(=O)N1CC2CC(C1)N2			38 nM	11000 nM		
C[C@@H]1C(C(=O)N2CC3CC(C2)N3)[C@@H]1C (some centres unmarked)	44 nM		30 nM	170 nM		
O=C(COc1ccc(Cl)c(Cl)c1)N1CC2CC(C1)N2				700 nM	330 nM	
O=C(c1cnco1)N1CC2CC(C1)N2	28 nM		0.18 nM	17000 nM		
O=C(NCc1ccc(Cl)cc1Cl)N1C2CNCC1C2				21000 nM	1100 nM	
O=C(NCc1ccc(Cl)c(Cl)c1)N1C2CNCC1C2				5900 nM	3100 nM	
C[C@@H]1C[C@@H]1C(=O)N1C2CNCC1C2				30000 nM	820 nM	
O=C(C1C2C3CCC(C3)C12)N1CC2CC(C1)N2 (centres unmarked)				22000 nM	1300 nM	
C[C@H]1C[C@@H]1C(=O)N1C2CNCC1C2				31000 nM	210 nM	
O=C([C@@H]1C[C@H]2C=C[C@H]1C2)N1C2CNCC1C2				1300 nM	300 nM	
O=C(C1CC12CCCC2)N1C2CNCC1C2 (centres unmarked)				610 nM	280 nM	
O=C(c1cc(Cl)cc(Cl)c1)N1C2CNCC1C2				14000 nM	1200 nM	
